According to ChEMBL document CHEMBL3085757, “Pyrazole scaffold: a remarkable tool in the development of anticancer agents” (Eur J Med Chem, 2013):

Tested on: Artemia salina
Experiment: Cytotoxicity against brine shrimp
Format: functional, organism-based

Structure (SMILES) | IC50 [ppm]
CC1=NN(c2ccc(Br)cc2Br)C(=O)/C1=N\NC(N)=S | 36
CC1=NN(c2ccc(Br)cc2Br)C(=O)C1=O | 36
CC(=O)NNC1=NN(C(C)=O)C2(O1)C(=O)N(c1ccc(Br)cc1Br)N=C2C (centres undefined) | 20
CC(=O)NC1=NN(C(C)=O)C2(S1)C(=O)N(c1ccc(Br)cc1Br)N=C2C (centres undefined) | 19.5
